Test results taken from ChEMBL document CHEMBL1201862, “PubChem BioAssay data set” (2004).
Activity calls are given as the source filed them.

Assays:
[1] = target: T1, Short transient receptor potential channel 4 (Mus musculus, UniProt Q9QUQ5); test: mouse TRPC4 channel activators, dose response, cell-based, HEK293 TRPC4/mu-opioid, Fluo-4 calcium (AID 434937); format: functional
T1 sequence (Q9QUQ5 whole entry): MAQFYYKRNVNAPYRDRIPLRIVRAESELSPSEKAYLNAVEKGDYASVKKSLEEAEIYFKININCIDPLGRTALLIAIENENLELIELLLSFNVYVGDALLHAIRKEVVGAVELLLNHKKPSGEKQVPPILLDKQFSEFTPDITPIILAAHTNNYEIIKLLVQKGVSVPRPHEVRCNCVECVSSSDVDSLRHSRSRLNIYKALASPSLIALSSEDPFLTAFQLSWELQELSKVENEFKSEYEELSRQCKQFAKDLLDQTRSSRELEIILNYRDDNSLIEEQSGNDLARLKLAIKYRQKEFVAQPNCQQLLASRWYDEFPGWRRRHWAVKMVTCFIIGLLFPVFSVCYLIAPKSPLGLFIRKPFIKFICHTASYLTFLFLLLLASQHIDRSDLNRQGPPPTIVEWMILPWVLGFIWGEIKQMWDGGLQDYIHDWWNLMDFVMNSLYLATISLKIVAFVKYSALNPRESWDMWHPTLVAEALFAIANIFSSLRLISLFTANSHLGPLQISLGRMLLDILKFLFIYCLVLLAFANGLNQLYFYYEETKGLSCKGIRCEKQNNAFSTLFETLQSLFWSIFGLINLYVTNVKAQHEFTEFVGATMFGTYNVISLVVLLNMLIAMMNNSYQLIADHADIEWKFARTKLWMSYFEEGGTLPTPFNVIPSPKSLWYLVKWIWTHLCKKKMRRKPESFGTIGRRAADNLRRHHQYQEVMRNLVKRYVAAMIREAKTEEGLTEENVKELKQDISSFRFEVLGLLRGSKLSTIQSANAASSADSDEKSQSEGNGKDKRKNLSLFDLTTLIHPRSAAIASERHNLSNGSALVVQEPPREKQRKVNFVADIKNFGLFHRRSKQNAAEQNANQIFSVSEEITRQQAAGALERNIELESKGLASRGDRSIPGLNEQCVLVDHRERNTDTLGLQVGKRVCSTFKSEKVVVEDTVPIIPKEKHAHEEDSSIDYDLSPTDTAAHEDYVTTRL

[2] = target: T2, Polyadenylate-binding protein 1 (Homo sapiens, UniProt P11940); test: PABP1 MLLE–PAM2 interaction inhibitors, dose response, miRNA deadenylation inhibitor project, biochemical, fluorescence polarization, Cy5-PAM2 peptide, secondary (AID 602260); format: functional; settings: read-out: IC50_Mean
T2 sequence (P11940 whole entry): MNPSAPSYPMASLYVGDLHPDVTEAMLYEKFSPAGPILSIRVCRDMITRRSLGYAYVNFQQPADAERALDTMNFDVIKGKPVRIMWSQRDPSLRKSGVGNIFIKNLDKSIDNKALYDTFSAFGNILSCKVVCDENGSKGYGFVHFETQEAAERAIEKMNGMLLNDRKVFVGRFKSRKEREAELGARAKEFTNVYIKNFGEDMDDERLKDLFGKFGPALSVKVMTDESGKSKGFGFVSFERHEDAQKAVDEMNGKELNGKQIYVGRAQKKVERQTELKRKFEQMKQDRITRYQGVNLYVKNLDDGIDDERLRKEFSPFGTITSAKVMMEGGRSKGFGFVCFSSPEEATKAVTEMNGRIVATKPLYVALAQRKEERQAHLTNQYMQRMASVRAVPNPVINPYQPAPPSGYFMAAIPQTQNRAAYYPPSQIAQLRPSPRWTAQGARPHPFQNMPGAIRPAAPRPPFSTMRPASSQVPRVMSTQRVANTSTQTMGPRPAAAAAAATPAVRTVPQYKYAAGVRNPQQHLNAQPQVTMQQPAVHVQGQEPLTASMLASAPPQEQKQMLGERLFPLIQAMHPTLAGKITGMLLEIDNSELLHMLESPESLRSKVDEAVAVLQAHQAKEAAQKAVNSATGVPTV

[3] = target: T2, Polyadenylate-binding protein 1; test: PABP1 MLLE–PAM2 binding inhibitor potency, dose response, biochemical, fluorescence polarization, FITC-PAM2 peptide (AID 602259); format: functional; settings: read-out: IC50_Mean
[4] = target: T3, Corticotropin-releasing factor receptor 2/Corticotropin-releasing factor-binding protein (Homo sapiens, UniProt P24387+Q13324); test: activators of CRF receptor 2 with binding protein – uHTS hits, confirmation (AID 602473); format: functional; settings: read-out: EC50_Mean
T3 sequence (Q13324 whole entry): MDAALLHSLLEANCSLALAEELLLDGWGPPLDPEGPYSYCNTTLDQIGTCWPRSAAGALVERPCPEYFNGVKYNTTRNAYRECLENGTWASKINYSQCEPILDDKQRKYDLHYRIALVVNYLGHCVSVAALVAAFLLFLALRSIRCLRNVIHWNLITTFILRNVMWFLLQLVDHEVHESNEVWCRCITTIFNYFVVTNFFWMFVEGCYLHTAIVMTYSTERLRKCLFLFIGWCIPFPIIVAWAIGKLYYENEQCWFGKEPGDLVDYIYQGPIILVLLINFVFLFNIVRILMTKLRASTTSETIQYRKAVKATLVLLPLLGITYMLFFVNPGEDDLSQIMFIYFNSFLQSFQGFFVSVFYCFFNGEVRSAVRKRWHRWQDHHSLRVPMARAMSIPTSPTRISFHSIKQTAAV
T3 sequence (P24387 whole entry): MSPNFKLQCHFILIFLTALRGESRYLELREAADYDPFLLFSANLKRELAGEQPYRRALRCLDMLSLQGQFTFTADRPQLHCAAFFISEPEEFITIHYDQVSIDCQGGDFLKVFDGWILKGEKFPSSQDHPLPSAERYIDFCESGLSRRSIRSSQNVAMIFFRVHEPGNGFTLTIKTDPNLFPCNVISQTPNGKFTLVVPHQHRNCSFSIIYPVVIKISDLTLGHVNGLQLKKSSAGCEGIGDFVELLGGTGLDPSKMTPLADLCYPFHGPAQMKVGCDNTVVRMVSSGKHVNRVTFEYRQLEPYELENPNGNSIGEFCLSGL

[5] = target: FAD-linked sulfhydryl oxidase ALR (Homo sapiens, UniProt P55789); test: inhibitors of human ALR sulfhydryl oxidase, dose response, biochemical, H2O2 detection, luminescence, cherry-pick (AID 493248)
Sequence of FAD-linked sulfhydryl oxidase ALR (P55789 whole entry): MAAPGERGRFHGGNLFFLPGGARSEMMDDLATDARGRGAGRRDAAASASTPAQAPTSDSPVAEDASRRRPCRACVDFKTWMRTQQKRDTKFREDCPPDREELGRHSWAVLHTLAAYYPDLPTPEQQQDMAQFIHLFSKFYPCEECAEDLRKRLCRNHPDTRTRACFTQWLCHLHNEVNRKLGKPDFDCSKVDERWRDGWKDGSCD

Cytochrome P450 2C19 = Cytochrome P450 2C19 (Homo sapiens, UniProt P33261); test: Cytochrome panel assay with activity outcomes. Panel member name: p450-cyp2c19 Compounds with AC50 equal or less than 10 uM are considered active; format: functional; settings: read-out: AC50
Sequence of Cytochrome P450 2C19 (P33261 whole entry): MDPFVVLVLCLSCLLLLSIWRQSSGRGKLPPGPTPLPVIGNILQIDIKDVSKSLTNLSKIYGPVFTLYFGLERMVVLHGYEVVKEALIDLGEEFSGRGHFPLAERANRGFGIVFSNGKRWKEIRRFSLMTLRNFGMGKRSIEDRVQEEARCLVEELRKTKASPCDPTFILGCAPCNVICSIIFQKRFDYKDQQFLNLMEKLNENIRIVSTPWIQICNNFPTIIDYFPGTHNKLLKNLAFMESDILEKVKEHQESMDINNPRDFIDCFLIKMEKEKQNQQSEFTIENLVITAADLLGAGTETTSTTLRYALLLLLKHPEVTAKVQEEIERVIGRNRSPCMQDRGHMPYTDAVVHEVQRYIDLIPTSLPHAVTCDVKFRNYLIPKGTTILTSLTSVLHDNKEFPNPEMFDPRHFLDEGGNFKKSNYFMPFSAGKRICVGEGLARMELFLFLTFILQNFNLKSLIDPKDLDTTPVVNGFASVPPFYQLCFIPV

Cytochrome P450 3A4 = Cytochrome P450 3A4 (Homo sapiens, UniProt P08684);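 note: CYP3A4 tested as one member of a cytochrome P450 panel screen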
Sequence of Cytochrome P450 3A4 (P08684 whole entry): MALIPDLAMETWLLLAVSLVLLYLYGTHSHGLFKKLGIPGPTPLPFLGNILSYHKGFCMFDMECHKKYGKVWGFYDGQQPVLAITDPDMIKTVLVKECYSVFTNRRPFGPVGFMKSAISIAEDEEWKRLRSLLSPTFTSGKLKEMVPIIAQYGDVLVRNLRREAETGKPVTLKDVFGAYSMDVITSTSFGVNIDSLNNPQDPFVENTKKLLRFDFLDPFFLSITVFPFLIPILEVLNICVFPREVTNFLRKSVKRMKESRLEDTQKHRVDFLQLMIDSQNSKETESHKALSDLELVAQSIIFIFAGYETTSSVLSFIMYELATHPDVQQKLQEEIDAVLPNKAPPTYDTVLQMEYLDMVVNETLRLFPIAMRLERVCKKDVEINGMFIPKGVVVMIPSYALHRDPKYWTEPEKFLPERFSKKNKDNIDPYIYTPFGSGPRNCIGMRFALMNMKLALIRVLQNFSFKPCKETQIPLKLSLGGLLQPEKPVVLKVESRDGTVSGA

Cytochrome P450 2C9 = Cytochrome P450 2C9 (Homo sapiens, UniProt P11712)
Sequence of Cytochrome P450 2C9 (P11712 whole entry): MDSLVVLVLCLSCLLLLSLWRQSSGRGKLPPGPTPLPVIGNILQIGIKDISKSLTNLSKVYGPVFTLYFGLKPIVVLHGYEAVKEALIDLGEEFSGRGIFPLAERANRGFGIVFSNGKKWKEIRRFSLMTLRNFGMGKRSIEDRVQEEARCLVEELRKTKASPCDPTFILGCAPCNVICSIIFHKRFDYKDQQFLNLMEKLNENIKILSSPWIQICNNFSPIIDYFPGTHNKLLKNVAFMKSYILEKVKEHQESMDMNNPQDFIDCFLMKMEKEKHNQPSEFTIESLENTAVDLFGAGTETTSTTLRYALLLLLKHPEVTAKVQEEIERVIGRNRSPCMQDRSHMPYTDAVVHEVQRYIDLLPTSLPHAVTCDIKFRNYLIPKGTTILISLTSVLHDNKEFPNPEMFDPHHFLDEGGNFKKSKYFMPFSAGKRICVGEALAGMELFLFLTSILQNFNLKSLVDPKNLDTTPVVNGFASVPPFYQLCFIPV

[6] = Luminescence Cell-Based Dose Response HTS to Identify Activators of Luciferase Translation or Activity in H4 […] Cells. [Related pubchem assays: 1829 (Project Summary), 1814 (Primary HTS)]; format: functional
[7] = test system: Streptococcus sp. 'group A'; test: growth inhibition of control SK(-) GAS strain, dose response, counter-screen for streptokinase expression inhibitor project, luminescence, kanamycin, BacTiterGlo, confirmation (AID 1900); format: functional, organism-based
H4 = test: Luminescence Cell-Based Dose Response HTS to Identify Activators of 5'UTR Stem-Loop Driven Prion Protein mRNA Translation in H4 Neuroglioblastoma Cells. [Related pubchem assays: 1829 (Project Summary), 1814 (Primary HTS)]; format: functional; settings: Homo sapiens
Streptokinase A = target: T4, Streptokinase A (Streptococcus pyogenes serotype M1, UniProt P10520); test: S. pyogenes streptokinase expression inhibitors, potency, dose response, plasminogen activation absorbance, OD405 (AID 1914); format: functional, Streptococcus pyogenes M1 GAS;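 note: secreted streptokinase activity via plasminogen activation per viability signal from cell pellet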
T4 sequence (P10520 whole entry): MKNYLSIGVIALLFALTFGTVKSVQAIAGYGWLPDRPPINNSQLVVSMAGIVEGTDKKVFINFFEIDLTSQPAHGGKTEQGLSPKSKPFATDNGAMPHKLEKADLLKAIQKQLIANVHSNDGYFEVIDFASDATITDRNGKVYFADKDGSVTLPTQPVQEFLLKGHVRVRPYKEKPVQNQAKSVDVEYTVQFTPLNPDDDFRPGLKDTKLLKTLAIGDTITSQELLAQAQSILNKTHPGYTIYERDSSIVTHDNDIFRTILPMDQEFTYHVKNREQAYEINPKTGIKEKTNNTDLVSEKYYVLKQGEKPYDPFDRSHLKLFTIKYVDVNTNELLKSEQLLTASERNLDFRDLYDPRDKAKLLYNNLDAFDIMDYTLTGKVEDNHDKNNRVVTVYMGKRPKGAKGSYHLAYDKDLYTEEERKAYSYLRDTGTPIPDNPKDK

Streptococcus = test: Group A Streptococcus viability loss, dose response, counter-screen for streptokinase expression inhibitor project, luminescence, BacTiterGlo (AID 1915); format: functional, organism-based;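 note: potency for reduction of bacterial viability or growth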
Leucine aminopeptidase = target: T5, Leucine aminopeptidase (Plasmodium falciparum 3D7, UniProt Q8IL11); test: P. falciparum M17LAP inhibitors, primary screen, biochemical, fluorogenic H-Leu-NHMec substrate, 1536-well (AID 1619); format: functional
T5 sequence (Q8IL11 whole entry): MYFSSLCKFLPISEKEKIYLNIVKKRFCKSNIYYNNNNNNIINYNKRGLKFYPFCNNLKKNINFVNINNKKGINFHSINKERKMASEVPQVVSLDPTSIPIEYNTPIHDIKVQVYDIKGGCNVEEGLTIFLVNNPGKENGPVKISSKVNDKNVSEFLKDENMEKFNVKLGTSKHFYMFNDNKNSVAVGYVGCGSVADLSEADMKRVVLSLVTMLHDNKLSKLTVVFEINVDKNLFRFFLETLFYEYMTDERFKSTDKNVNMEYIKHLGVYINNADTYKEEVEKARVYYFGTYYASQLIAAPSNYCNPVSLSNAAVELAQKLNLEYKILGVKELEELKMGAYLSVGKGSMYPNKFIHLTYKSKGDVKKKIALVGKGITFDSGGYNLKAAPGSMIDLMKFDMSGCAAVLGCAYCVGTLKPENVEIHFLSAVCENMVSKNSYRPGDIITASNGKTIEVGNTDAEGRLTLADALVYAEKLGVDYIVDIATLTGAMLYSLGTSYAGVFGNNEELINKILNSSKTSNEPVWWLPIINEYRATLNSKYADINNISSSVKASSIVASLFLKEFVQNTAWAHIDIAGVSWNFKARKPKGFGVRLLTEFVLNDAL

[8] = target: T6, Microphthalmia-associated transcription factor (Homo sapiens, UniProt O75030); test: TRPM1 promoter luciferase signal decrease, dose response, MITF inhibitor project, cell-based, SK-MEL-5, cherry-picked, set 3 (AID 493073); format: functional
T6 sequence (O75030 whole entry): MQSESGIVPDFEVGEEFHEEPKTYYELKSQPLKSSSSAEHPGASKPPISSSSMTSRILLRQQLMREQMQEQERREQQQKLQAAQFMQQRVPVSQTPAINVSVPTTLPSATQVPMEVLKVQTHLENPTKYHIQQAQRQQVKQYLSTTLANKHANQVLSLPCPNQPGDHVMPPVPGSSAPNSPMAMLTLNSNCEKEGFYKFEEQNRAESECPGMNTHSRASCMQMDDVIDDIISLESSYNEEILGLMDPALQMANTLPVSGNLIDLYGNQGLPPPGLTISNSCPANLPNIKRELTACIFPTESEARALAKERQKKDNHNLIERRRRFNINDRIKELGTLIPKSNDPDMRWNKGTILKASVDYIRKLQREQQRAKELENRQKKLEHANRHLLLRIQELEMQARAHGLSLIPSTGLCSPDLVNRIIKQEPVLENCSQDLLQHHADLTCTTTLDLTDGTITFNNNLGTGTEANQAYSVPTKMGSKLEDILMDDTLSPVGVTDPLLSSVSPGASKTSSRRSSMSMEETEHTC

[9] = target: T7, High affinity choline transporter 1 (Homo sapiens, UniProt Q9GZV3); test: CHT inhibitors, dose response, cell-based, 5-point CRC, membrane potential dye (AID 504840); format: functional
T7 sequence (Q9GZV3 whole entry): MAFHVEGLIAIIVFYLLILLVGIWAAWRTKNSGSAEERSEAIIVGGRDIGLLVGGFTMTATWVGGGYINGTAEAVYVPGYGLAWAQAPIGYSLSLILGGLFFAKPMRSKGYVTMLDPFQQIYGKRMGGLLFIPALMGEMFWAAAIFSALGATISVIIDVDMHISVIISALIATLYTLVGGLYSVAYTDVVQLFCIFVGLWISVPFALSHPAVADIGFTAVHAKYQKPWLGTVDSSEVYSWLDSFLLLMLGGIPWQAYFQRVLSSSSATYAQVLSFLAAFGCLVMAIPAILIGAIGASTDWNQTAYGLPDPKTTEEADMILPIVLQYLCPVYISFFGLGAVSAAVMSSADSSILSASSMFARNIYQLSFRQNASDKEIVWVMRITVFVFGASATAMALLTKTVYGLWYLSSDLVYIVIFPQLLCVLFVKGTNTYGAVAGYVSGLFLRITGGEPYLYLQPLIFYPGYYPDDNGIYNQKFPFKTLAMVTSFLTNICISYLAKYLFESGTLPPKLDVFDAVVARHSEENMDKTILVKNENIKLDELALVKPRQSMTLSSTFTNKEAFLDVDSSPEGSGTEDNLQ

[10] = inhibitors of intracellular T. cruzi replication, confirmation, NIH3T3 host cells, beta-gal luminescence (AID 2044); format: functional, cell-based;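 note: intracellular parasites grown in NIH/3T3 mouse fibroblasts as host cells; luminescent beta-galactosidase reporter signal from transgenic T. cruzi replicating inside host cells; inhibitors lower the luminescence signal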
[11] = cytotoxicity toward NIH3T3 fibroblasts, dose response, counter-screen, cell-based, ATP luminescence, mouse fibroblasts (AID 2010); format: functional;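 note: cells exposed to compound for about 90 hours before reading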
Cytochrome P450 2D6 = Cytochrome P450 2D6 (Homo sapiens, UniProt P10635);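 note: CYP2D6 member of a cytochrome P450 panel assay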
Sequence of Cytochrome P450 2D6 (P10635 whole entry): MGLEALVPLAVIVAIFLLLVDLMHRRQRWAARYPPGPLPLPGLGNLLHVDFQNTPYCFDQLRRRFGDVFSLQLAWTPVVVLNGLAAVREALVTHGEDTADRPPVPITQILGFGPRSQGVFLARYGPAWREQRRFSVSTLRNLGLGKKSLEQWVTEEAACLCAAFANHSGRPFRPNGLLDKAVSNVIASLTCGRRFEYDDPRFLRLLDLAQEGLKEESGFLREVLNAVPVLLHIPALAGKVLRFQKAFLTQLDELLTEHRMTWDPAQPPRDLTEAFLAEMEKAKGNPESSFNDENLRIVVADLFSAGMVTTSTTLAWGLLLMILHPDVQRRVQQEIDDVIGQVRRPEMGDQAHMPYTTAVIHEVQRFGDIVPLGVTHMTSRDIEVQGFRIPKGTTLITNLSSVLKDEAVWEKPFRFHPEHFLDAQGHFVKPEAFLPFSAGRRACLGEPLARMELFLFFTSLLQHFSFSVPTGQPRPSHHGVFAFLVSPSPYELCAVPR

## CC12CCCCN1CCCc1c2[nH]c2ccccc12 (stereo unspecified)
[1]
  EC50: 4.22 µM (active)
[2]
  IC50: > 66 µM (inactive)
[3]
  IC50: > 66 µM (inactive)
[4]
  EC50: 4.38 µM (active)

## CCOC(=O)C1(CCCc2ccccc2)CCN(Cc2cn(CC)nc2C)CC1
[1]
  EC50: 0.119 µM (active)

## COc1ccc(/C=C/CN2CCCC(C(=O)c3ccc(OC)c(F)c3)C2)cc1 (stereo unspecified)
[1]
  EC50: 10.6 µM (active)

## O=S(=O)(Nc1ccccc1O)c1ccc2[nH]c(O)nc2c1
[5]
  AC50: 2.1 µM (active)

## COc1ccc(NC(=O)c2cc(-c3ccccc3Cl)no2)cc1
Cytochrome P450 2C19
  AC50: 2.82 µM (inconclusive)
Cytochrome P450 3A4
  AC50: 20 µM (inconclusive)
Cytochrome P450 2C9
  AC50: inconclusive

## CCOc1c(OC(C)=O)ccc(/C=C/c2ccc3cccc(OC(C)=O)c3n2)c1[N+](=O)[O-]
[6]
  EC50: 8.52 µM (active)
[7]
  EC50: 1.49 µM (active)
H4
  EC50: 8.07 µM (active)
Streptokinase A
  EC50: > 150 µM (not active)
Streptococcus
  EC50: 8.24 µM (active)
Cytochrome P450 2C9
  AC50: inconclusive

## CCN1CCN(c2c(Cl)cccc2NC(=O)c2ccc([N+](=O)[O-])cc2)CC1
[1]
  EC50: 0.421 µM (active)

## CC(/C=C1\SC(=O)N(CCCC(=O)O)C1=O)=C\c1ccccc1
Leucine aminopeptidase
  IC50: 15.8 µM (active)
[5]
  AC50: 4.84 µM (active)
[8]
  AC50: 2.36 µM (active)
[9]
  IC50: 12.6 µM (active)

## Cc1cc(Br)cc(C)c1OCCCCN(C)C.O=C(O)C(=O)O
[10]
  EC50: 0.196 µM (active)
[11]
  EC50: > 30 µM (not active)
Cytochrome P450 2C9
  AC50: inconclusive

## O=C(Nc1ccc(Cl)cc1)N1CCC(c2nc(-c3cccs3)no2)CC1
[1]
  EC50: 3.35 µM (active)

## O=C(COc1ccc2ccccc2c1Br)NNC(=O)Nc1ccccc1
Cytochrome P450 2C9
  AC50: inconclusive

## Cc1c(C)c(C)c(C(=O)CCc2cccc(NC(=O)CCC(=O)O)c2)c(C)c1C
[5]
  AC50: 1.72 µM (active)

## Cc1ccc(/C=N/NC(=O)C2CCN(Cc3ccc(F)cc3Cl)CC2)o1
Cytochrome P450 2C19
  AC50: 31.6 µM (inconclusive)
Cytochrome P450 2D6
  AC50: 35.5 µM (inconclusive)
Cytochrome P450 3A4
  AC50: 5.01 µM (inconclusive)
Cytochrome P450 2C9
  AC50: inconclusive
